Publication PMC7732531 (Frontiers in Pharmacology, 2020)

Experiments:
in vitro = details: 1 µM
Experimental: The fraction of unbound YL-IPA08 in plasma and liver microsomes of rat and human, and brain homogenates of rat were determined utilizing Rapid Equilibrium Dialysis method ([Waters et al., 2008]). Rat brain homogenate was harvested in 4-fold volume (w/v) of PBS (pH 7.4). YL-IPA08 were spiked into fresh plasma, rat brain homogenate, liver microsomes (0.2 mg/ml protein) at concentration of 1 µM, and then dialyzed against […] on a shaker at 37°C for 4 h. To avoid the high non-specific binding of YL-IPA08, 0.01% Tween 80 was added in the incubation mixture. At the end of the incubation, protein was precipitated with acetonitrile (containing IS) and analyzed by LC-MS/MS. Phenacetin, quinidine, and warfarin were selected as positive control for the protein binding test.
The unbound fraction of YL-IPA08 in plasma or liver microsomes (ƒu,x) was calculated as shown in Eq. 2, and unbound fraction in the tissue homogenate (ƒu,b) was calculated according to Eq. 3. fu,x = Concbuffer chamber/Concplasma/liver microsomes chamber (2) fu,b = Concbuffer chamber/Concbrain homogenate chamber (3) The measured unbound fractions would be higher when a tissue is homogenized and diluted in buffer, the unbound fractions in an undiluted tissues (ƒu,brain) were calculated using Eq. 4 ([Kalvass and Maurer, 2002]). Undiluted fu,brain=1/D/((1/fu,brain homogenate)−1)+1/D (4) Where D represents the fold of dilution factor in brain homogenates. The free fraction of plasma and undiluted tissue is used in tissue-to-plasma exposure ratio calculation.

[1] = Transcellular transport experiment with Caco-2 cells; details: human, Caco-2
Experimental: (§1) Caco-2 cell lines were cultured (ATCC, Manassas, VA, United States) as described previously ([Liu et al., 2014]). Briefly, the cells were cultured at 37°C in 5% CO2 at 90% humidity in DMEM high glucose medium containing 20% fetal bovine serum, 1% nonessential amino acids, 100 U/ml penicillin and 1% streptomycin. For the efflux studies, the cells were seeded onto polyethylene terephthalate Millicell® cell culture inserts (0.4 μm pore size, 6.5 mm diameter, Millipore Corporation, Billerica, MA, United States) at a density of 1.7 × 10^5 cells/ml. The culture medium was refreshed on the day after seeding, after which it was refreshed every other day and on the day before the transport experiment. The cells were cultured for 20–22 days after seeding and then evaluated by measuring the transepithelial electrical resistance (TEER) (Millicell ERS®, Millipore Corporation) before experiments. […] Transepithelial permeability studies for YL-IPA08 (10 μM) were conducted from apical to basolateral side (A-B) and basolateral to apical side (B-A) for 120 min 0.2% BSA was included in the receiver solution to avoid nonspecific binding. At 60, 90, and 120 min, half volume of solution from receiver side was withdrawn, and same volume of HBSS was immediately added. Obtained samples were precipitated by adding 4× volumes of acetonitrile containing IS and centrifuged. The supernatants were stored in −20°C until further analysis by LC-MS/MS.
(§2) The in vitro t1/2 in liver microsomal incubation was calculated from the semi-log plot of percentage remaining vs. incubation time and intrinsic clearance (Clint, ml/min/mg protein) was calculated as Eq. 1: CLint=0.693/in vitro t1/2×volume of incubation (μl)/amount of microsomal protein in incubation (mg) (1) ([Suzuki et al., 2003]).Apparent permeability was obtained according to the equation Papp = (dQ/dt)/(A × C0), where dQ/dt is the mass transport rate (determined from the slope of the amount transported vs. time plot), A is the surface area of the monolayer, and C0 is the initial concentration of YL-IPA08 in the donor chamber ([Suzuki et al., 2003]). The efflux ratio was calculated for each study using the following equation: […] = Papp(B–A)/Papp(A–B), where Papp(B–A) and Papp(A–B) represent apparent drug permeability in the B to A and A to B direction, respectively. An efflux ratio greater than 2 indicates net efflux.

Caco-2 cells = assay: as above; details: for Concentration, A-B-A-90min / Concentration, A-B-B-90min: Caco-2, A→B; for Concentration, A-B-A-90min: apical (donor) side; for Concentration, A-B-B-90min: basolateral (receiver) side; for Concentration, B-A-A-90min / Concentration, B-A-B-90min: Caco-2, B→A; for Concentration, B-A-A-90min: apical (receiver) side; for Concentration, B-A-B-90min: basolateral (donor) side; for Concentration, DOA: Caco-2, apical donor at time 0; for Concentration, DOB: Caco-2, basolateral donor at time 0
Experimental: as §1, §2

Compound | Protein biding (%) (in vitro; rat, 4 h) | Papp A→B at 120 min, 10 μM [1] | Papp B→A at 120 min, 10 μM [1] | efflux ratio at 120 min, 10 μM [1] | Concentration, A-B-A-90min (Caco-2 cells) | Concentration, A-B-B-90min (Caco-2 cells) | Concentration, B-A-A-90min (Caco-2 cells) | Concentration, B-A-B-90min (Caco-2 cells) | Concentration, DOA (Caco-2 cells) | Concentration, DOB (Caco-2 cells) | Protein biding (%) (in vitro; Rat plasma, dialysis 4 h)
CC(=O)CC(c1ccccc1)c1c(O)c2ccccc2oc1=O (stereo not drawn) [warfarin, reference compound] | 99.67 ± 0.08% | – | – | – | – | – | – | – | – | – | –
C[C@H]1O[C@@H](O[C@H]2[C@@H](O)C[C@H](O[C@H]3[C@@H](O)C[C@H](O[C@H]4CC[C@@]5(C)[C@H](CC[C@@H]6[C@@H]5C[C@@H](O)[C@]5(C)[C@@H](C7=CC(=O)OC7)CC[C@]65O)C4)O[C@@H]3C)O[C@@H]2C)C[C@H](O)[C@@H]1O [Digoxin] | – | 0.45 ± 0.17 ×10⁻⁶ cm/s | 2.63 ± 0.7 ×10⁻⁶ cm/s | 6.25 | 8.117 ± 0.473 µM | 0.009 ± 0.002 µM | 0.203 ± 0.027 µM | 8.867 ± 0.388 µM | 11.683 ± 3.499 µM | 12.667 ± 2.619 µM | –
CC(C)NCC(O)COc1cccc2ccccc12 (stereo not drawn) [Propranolol] | – | 4.35 ± 2.06 ×10⁻⁶ cm/s | 2.78 ± 0.09 ×10⁻⁶ cm/s | 0.63 | 4.608 ± 0.43 µM | 0.079 ± 0.026 µM | 0.172 ± 0.019 µM | 7.267 ± 0.597 µM | 10.633 ± 2.369 µM | 10.367 ± 1.118 µM | –
C=C[C@H]1C[N@@]2CC[C@H]1C[C@@H]2[C@@H](O)c1ccnc2ccc(OC)cc12 [quinidine, reference compound] | – | – | – | – | – | – | – | – | – | – | 78.08 ± 4.49%
CCOc1ccc(NC(C)=O)cc1 [phenacetin, reference compound] | – | – | – | – | – | – | – | – | – | – | 58.48 ± 2.26%
